Data set [1] in a line: Dynamic dialysis without microgels: permeability of the dialysis membrane to free solutes. As to conditions: through dialysis membrane, no microgel, from mean K and membrane thickness (eqn 3). The data set is classed as physicochemical.
Excerpt: Drug release from microgels loaded with either DCTAF-labeled PLURONIC® or doxorubicin was studied using the dynamic dialysis technique of Gupta, P. K., et al., J. Pharm. […] A Teflon-made, thermostatted dynamic dialyzer consisted of two chambers, separated by a dialysis membrane (cellulose ester, working area A=0.35 cm^2, molecular weight cut-off 100 kDa, Spectrum Laboratories). […] Concentration of the drug in the receiver solution was monitored online by passing through a thermostatted quartz cuvette (path length 1.0 cm). […] The dialyzer was maintained at 37° C. by submersion in a water bath. The flow rate through the receiver chamber was maintained at 1.5 mL/min. […] The total volume of the receiver solution (Vr), including the chamber, cuvette, and 0.093″ tubing, was 98 mL in all experiments.
Permeability of the dialysis membrane was determined by loading a certain amount (qf^0) of either doxorubicin or PLURONIC® solution into the feed chamber and measuring the kinetics of release. […] The membrane thickness (δ) was measured microscopically in the receiver solution upon completion of the dialysis experiment and was typically in the order of 100 μm. […]
In the control experiments, we measured permeability of the dialysis membrane for doxorubicin and PLURONIC® L61 without loading into microgels. […]
A short description of data set [2]: Equilibrium loading (uptake) of drugs into microgels. The data set is classed as physicochemical. As to conditions: pH 7.0, PLURONIC-PAA microgels XL = 1 mol %. The procedure:
A microgel was suspended in Tris buffer (5 mM, pH 7.0) and 50 μL of the suspension (2 mg gel/mL buffer) was equilibrated with 3.0 mM stock solution of a drug (450 μL) for 16 h while shaking 44, 45. Shaking was performed using a KS 10 orbital shaker (BEA-Enprotech Corp., Hyde Park, Mass.) in an environmental chamber at 37° C. […] Deionized water was used as a mobile phase (flow rate, 1 mL/min, injection volume, 25 μL), and detection was carried out at 365 nm 47. […] The U values were measured in triplicate for each drug and for each temperature, pH, and gel, respectively. […] This ensured equilibrium U values. […] The beads were separated into several fractions. […] Then the beads were recovered from the suspension by using a magnet. […] The control fraction of loaded beads was subjected to the extraction without equilibration with the microgel suspension.

A short description of data set [3]: Transepithelial transport of doxorubicin across Caco-2 monolayers. The data set is classed as in vitro ADME. As to conditions: human. How it is done:
(§1) The drug-containing samples for the transport experiments were prepared as follows. […] The suspension was centrifuged at 8000×g for 0.5 h and the supernatant was removed. The pellet was weighed and resuspended in fresh portion of serum-free DMEM of a known weight. Known amount of doxorubicin and Pluronic were dissolved in the suspension, which was allowed to equilibrate at 37° C. overnight, then snap-frozen and lyophilized. The powders were kept at −70° C. Before the transport experiments, a known amount of powder was reconstituted in DMEM and was allowed to equilibrate at 37° C. overnight.
(§2) Cells were seeded at a density of (2-4)×10^4 cells/cm^2 on top of Transwell™ polycarbonate filters (pore size, 0.4 μm; diameter, 24.5 mm; growth area, 4.71 cm^2) from Costar (Cambridge, Mass.). The cells were grown for 3 weeks prior to the transport experiments and trans-epithelial electrical resistance (TEER) was measured using a Millicell-ERS device (Millipore, Bedford, Mass.) equipped with rod-shaped electrodes. The TEER data were corrected for background readings contributed by the blank filter and culture medium. […] Then the monolayers were rinsed twice by serum-free DMEM and the transport experiment commenced by replacing the medium at either the basolateral or the apical side of the monolayer with 2.5 mL of the serum-free DMEM containing doxorubicin (with or without microgels, see Table 3). Simultaneously, the medium on the other side was refreshed. The monolayers were incubated at 37° C. in 10% CO2 atmosphere. Samples of 200 μL were taken from each side intermittently, and the drug concentration was measured in the samples withdrawn from the side opposite to the side of the drug application. The volumes withdrawn were immediately replaced with equal volumes of serum-free DMEM pre-equilibrated at 37° C. Each experiment was repeated four times. […] Additionally, the concentration of doxorubicin in the medium was measured by HPLC using a Capcell Pak UG C18 (100×4.6 mm I.D., particle size 5 μm) column and a Universal Guard Cartridge System (Phenomenex, Torrance, Calif.). […] Water/acetonitrile (70/30, pH 4) was used as the mobile phase (flow rate, 1 mL/min, injection volume, 5 μL), and detection was carried out using an Argon Ion laser (488 nm, 10 mW). […] Temperature was controlled to ±0.05 C using a circulating water bath. The platinum Wilhelmy plate was washed with acetone, rinsed in Milli-Q water, and flamed until red-hot before each measurement.
(§3) The apparent permeability of the Caco-2 monolayer (Pa, cm/s) was calculated from the linearized time course of the doxorubicin fractional transport (dI1t/dt in the fluorescence assay and dCt/dt in the HPLC assay) normalized to the effective surface area of the filter (A=4.71 cm^2) and the initial fluorescence emission intensity reading (Io) or initial doxorubicin concentration (Co) in the donor (basolateral or apical) compartment of volume V=2.5 cm^3: [formula]
(Passage across Caco-2 layers is used to estimate intestinal permeability.)

In a further data set the test system is Caco-2 monolayers. Described as above. The data set is classed as in vitro ADME. As to conditions: doxorubicin 3 μM in donor, no further additive in DMEM. How it is done: as §1, §2, §3
For data set [4] the following is noted: cited from earlier work; for Charge: valency of cationic weak base, 0 = uncharged.

Where two headings read alike, the source gives them in different places.

With `COc1cccc2c1C(=O)c1c(O)c3c(c(O)c1C2=O)C[C@@](O)(C(=O)CO)C[C@@H]3O[C@H]1C[C@H](N)[C@H](O)[C@H](C)O1` [Doxorubicin], the “effective diffusion coefficient (D)” value in data set [1] is reported as 2.4×10^−5 cm^2/s. Besides, the “Uptake ± SD” value is given as 2.97 ± 0.33 (20° C.) mmol/g in data set [2] (20° C.) and 2.26 ± 0.37 (37° C.) mmol/g in data set [2] (37° C.). In data set [3] (Caco-2, doxorubicin 3 μM in donor, no further additive in DMEM, read-out: Pa, a→b, HPLC assay), the Papp A→B at 3 μM stood at 0.579 ×10⁻⁶ cm/s. Also, the Papp B→A at 3 µM is 2.75 ×10⁻⁶ cm/s in data set [3] (Caco-2, doxorubicin 3 μM in donor, no further additive in DMEM, read-out: apparent permeability, b→a, HPLC assay) and 2.81 ×10⁻⁶ cm/s in data set [3] (Caco-2, doxorubicin 3 μM in donor, no further additive in DMEM, read-out: apparent permeability, b→a, fluorescence assay). The efflux ratio in data set [3] (Caco-2, no additives, read-out: active efflux exceeding the passive influx) was 4.6. For the same molecule, in the data set on Caco-2 monolayers, the “Pa, a→b, fluorescence assay” value is given as “(6.07±0.04)×10^−7 cm/s”. Further, in data set [4], the “Log P (n-octanol-to-water partition coefficient)” value is on record as 1.85. In data set [4], the Charge is reported as 1.
Regarding `CO[C@@]12[C@H](COC(N)=O)C3=C(C(=O)C(C)=C(N)C3=O)N1C[C@@H]1N[C@@H]12` [Mitomycin C], in data set [2] (37° C.), the “Uptake ± SD” value is on record as 5.31 ± 1.86 (37° C.) mmol/g. For the same molecule, the Charge in data set [4] was 3.
For the molecule `O=C1c2c(O)ccc(O)c2C(=O)c2c(NCCNCCO)ccc(NCCNCCO)c21` [Mitoxantrone], the “Uptake ± SD” value in data set [2] (37° C.) is listed as 3.70 ± 0.56 (37° C.) mmol/g.

The record behind these values is US20080003288A1, “Responsive microgel and methods related thereto” (Supratek Pharma Inc., priority 2002, published 2008).
